Data taken from patent US7455840B2, “Compositions and methods to reduce mutagenesis” (priority 2003, dated 2008).
Converted amounts (≈) assume the structure as drawn. Like-named read-outs stand apart in the source and are kept apart here.

Legend:
E. coli MG1655 = assay: pre-exposure to rifampicin, then plating on 35 ng/mL ciprofloxacin; assay type: cell-based
E. coli ATCC 25922-ΔlacZ [1] = assay: neutropenic Swiss ICR mouse thigh infection treated with rifampin, CFU determination; conditions: lacZ Strain; rifampin 100 mg/kg subcutaneous every 12 hours; 96 h
Experimental: Two hours after infection the mice received rifampin at 100 mg/kg (subcutaneous) every 12 hours. The mice continued the rifampin regimen until they were sacrificed. Two mice were sacrificed at 0, 24, 48, 72 and 96 hours. The thighs were removed, homogenized, 1:10 serial diluted, and plated for CFU determination. Homogenates were plated on MH agar (NHA) to quantify the entire population of organisms and on rifampin containing MHA plates (16 mg/L) to quantify the population of organisms with a rifampin resistance phenotype.

ATCC 25922 lexA(S119A) [2] = assay: in vitro susceptibility testing with rifampin, Example 8; assay type: cell-based, E. coli
Experimental: (§1) In vitro susceptibility testing was performed with rifampin on the parent strains and on cells isolated from the agar plates after therapy.

E. coli ATCC 25922-ΔlacZ [3] = assay: neutropenic CD1 mouse thigh infection treated with rifampin, colonies on rifampin plates; conditions: rifampin 100 mg/kg twice daily subcutaneous; plates 128 mg/L; after 72 h of therapy
Experimental: (§3) Two hours after infection mice were treated with rifampin 100 mg/kg twice daily via the subcutaneous route. Groups of two mice were sacrificed at the started of therapy (zero hour) and every 24 h for a period of 72 h. After euthanasia, thigh were removed, homogenized, diluted, and plated for CFU enumeration (lower limit of detection is 2 log cfu/thigh). Homogenate dilutions were plated on MHA with and without rifampin (128 mg/L).

E. coli ATCC 25922-ΔlacZ [4] = assay: in vitro susceptibility testing with rifampin, Example 8; assay type: cell-based; conditions: Escherichia coli
Experimental: as §1

ATCC 25922 lexA(S119A) [5] = assay: neutropenic CD1 mouse thigh infection treated with rifampin, colonies on rifampin plates; conditions: rifampin 100 mg/kg twice daily subcutaneous; plates 128 mg/L; over the 72 h study period
Experimental: as §3

[6] = tested on: LexA strain (ATCC 25922 lexA(S119A)); assay: in vitro susceptibility testing (NCCLS method), rifampin MIC; assay type: cell-based, E. coli; conditions: Escherichia coli
Experimental: (§2) In vitro susceptibility testing of strains was preformed using the NCCLS method. (See National Committee for Clinical Laboratory Standards. 1997. Reference method for broth dilution anti-fungal susceptibility testing of yeasts. Approved standard M27-A. National Committee for Clinical Laboratory Standards, Wayne, Pa.) Eight colonies from each group at the 72 hr time point from MHA plate with and without rifampin were obtained. Minimum inhibitory concentrations (“MICs”) were performed in duplicate on three occasions on each colony. […] Minimum inhibitory concentrations of both the LexA and LacZ strains pre-treatment=8.0 mg/L.

[7] = tested on: LacZ strain (ATCC 25922-ΔlacZ); assay: as above; assay type: cell-based, E. coli; conditions: Escherichia coli
Experimental: as §2

[8] = tested on: ATCC 25922-lexA(S119A)(gyrA(S83L)); assay: second step mutation rate to 650 ng/ml ciprofloxacin resistance; assay type: cell-based, E. coli; conditions: lexA(S119A) strain already resistant to 35 ng/ml, evolving resistance to 650 ng/ml ciprofloxacin
Description: (§4) Error bars represent standard deviation from two independent rate determinations.

ATCC 25922-lexA(S119A) = assay: mouse thigh infection treated with ciprofloxacin, resistant colonies; conditions: mice given approximately cytostatic ciprofloxacin dose
[9] = tested on: ATCC 25922-ΔlacZ(gyrA(S83L)); assay: second step mutation rate to 650 ng/ml ciprofloxacin resistance; assay type: cell-based, E. coli; conditions: wild-type strain already resistant to 35 ng/ml, evolving resistance to 650 ng/ml ciprofloxacin
Description: as §4

[10] = tested on: E. coli K-12 (MG1655) isogenic loss of function strains; assay: ciprofloxacin MIC of isogenic strains (Table 5); conditions: Escherichia coli
LexA = LexA (Escherichia coli, UniProt P0A7C2); conditions: peptide at 1.5 mM; LexA 5 uM, 0.25 uM activated RecA, 37 degrees, 30 min (FIG. 20)
Experimental: Cleavage of LexA was initiated by the addition of 0.25 uM activated RecA. The mixture was incubated at 37 degrees for 30 min. Aliquots were removed and quenched in aqueous acetonitrile containing 0.1% TFA.
The cleavage of LexA protein was monitored by HPLC using a gradient of 30 to 90% buffer B (9.9% H2O, 90% CH3CN, 0.1% TFA) in buffer A(98% H2O, 1.9% CH3CN, 0.1% TFA) and recording absorbance at 214 nm. […] Error bars represent one standard deviation of three separate experiments.

[11] = ATCC25922, colonies from the 72 hr time point of rifampin therapy in mice, read-out: Minimum Inhibitory Concentrations, Post
[12] = ATCC25922, pre-treatment, read-out: Minimum Inhibitory Concentrations, Pre

Chain of LexA (P0A7C2 whole entry): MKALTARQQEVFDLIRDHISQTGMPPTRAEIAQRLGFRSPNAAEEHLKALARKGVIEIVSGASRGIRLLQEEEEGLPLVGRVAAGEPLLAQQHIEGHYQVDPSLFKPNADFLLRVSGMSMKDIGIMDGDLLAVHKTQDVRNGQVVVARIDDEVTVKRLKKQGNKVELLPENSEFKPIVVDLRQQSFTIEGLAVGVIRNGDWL

CO[C@H]1/C=C/O[C@@]2(C)Oc3c(C)c(O)c4c(O)c(c(/C=N/N5CCN(C)CC5)c(O)c4c3C2=O)NC(=O)/C(C)=C\C=C\[C@H](C)[C@H](O)[C@@H](C)[C@@H](O)[C@@H](C)[C@H](OC(C)=O)[C@@H]1C [rifampin]
effect on number of ciprofloxacin resistant colonies (E. coli MG1655; 4 mg/mL rifampicin in PBS, four days, 37° C., plated on 35 ng/mL ciprofloxacin): no effect
effect on number of ciprofloxacin resistant cells (E. coli MG1655; 12 mg/mL rifampicin in PBS, four days, 37° C., plated on 35 ng/mL ciprofloxacin): dramatic increase
effect on number of ciprofloxacin resistant cells (E. coli MG1655; 36 mg/mL rifampicin in PBS, four days, 37° C., plated on 35 ng/mL ciprofloxacin): dramatic increase
effect on number of ciprofloxacin resistant cells in umuDC deletion strain (E. coli MG1655; umuDC deletion stain, 12 or 36 mg/mL rifampicin): essentially completely lost
CFU/Thigh, Media (outcome of mice) (E. coli ATCC 25922-ΔlacZ [1]): mice dead.
MIC (ATCC 25922 lexA(S119A) [2]; Escherichia coli, ATCC25922, parent strain, read-out: MIC): 8 µg/mL (≈ 9.72 µM)
MIC (ATCC 25922 lexA(S119A) [2]; colonies after therapy): 8.0 µg/mL (≈ 9.72 µM)
colonies on rifampin containing plates (E. coli ATCC 25922-ΔlacZ [3]): large number
MIC (E. coli ATCC 25922-ΔlacZ [4]; ATCC25922, colonies isolated from the rifampin containing plates after therapy): > 256 µg/mL
MIC (E. coli ATCC 25922-ΔlacZ [4]; ATCC25922, parent strain): 8 µg/mL (≈ 9.72 µM)
colonies on rifampin containing plates (ATCC 25922 lexA(S119A) [5]): no colonies grew
MIC [6, 11]: 16 to 32 µg/mL (≈ 19.4 to 38.9 µM)
MIC [6, 12]: 8 µg/mL (≈ 9.72 µM)
MIC [7, 11]: > 16400 µg/mL
MIC [7, 12]: 8 µg/mL (≈ 9.72 µM)

O=C(O)c1cn(C2CC2)c2cc(N3CCNCC3)c(F)cc2c1=O [ciprofloxacin]
'second step' mutation rate [8]: 5.5 (±4.9)×10^−7 mutants/(cell day)
Colonies isolated on plates containing ciprofloxacin (ATCC 25922-lexA(S119A); day 1 post infection, plates 20 ng/mL): 3
Colonies isolated on plates containing ciprofloxacin (ATCC 25922-lexA(S119A); day 1 post infection, plates 80 ng/mL): 1
Colonies isolated on plates containing ciprofloxacin (ATCC 25922-lexA(S119A); day 2 post infection, plates 20 ng/mL): 2
Colonies isolated on plates containing ciprofloxacin (ATCC 25922-lexA(S119A); day 2 post infection, plates 80 ng/mL): 0
'second step' mutation rate [9]: 1.9 (±0.21)×10^−4 mutants/(cell day)
MIC ([10]; MG1655, read-out: ciprofloxacin MIC, strain lexA (S119A), WT gyrA): 0.03 µg/mL
MIC ([10]; MG1655, read-out: ciprofloxacin MIC, strain lexA (S119A), gyrA S83L): 0.35 µg/mL
MIC ([10]; MG1655, read-out: ciprofloxacin MIC, strain lexA (S119A), gyrA S83Δ): 0.25 µg/mL
MIC ([10]; MG1655, read-out: ciprofloxacin MIC, strain ΔdinB, WT gyrA): 0.035 µg/mL
MIC ([10]; MG1655, read-out: ciprofloxacin MIC, strain ΔdinB, gyrA S83L): 0.45 µg/mL
MIC ([10]; MG1655, read-out: ciprofloxacin MIC, strain ΔdinB, gyrA S83Δ): 0.25 µg/mL
MIC ([10]; MG1655, read-out: ciprofloxacin MIC, strain ΔdinB, ΔumuDC, WT gyrA): 0.035 µg/mL
MIC ([10]; MG1655, read-out: ciprofloxacin MIC, strain ΔdinB, ΔumuDC, gyrA S83L): 0.45 µg/mL
MIC ([10]; MG1655, read-out: ciprofloxacin MIC, strain ΔdinB, ΔumuDC, gyrA S83Δ): 0.25 µg/mL
MIC ([10]; MG1655, read-out: ciprofloxacin MIC, strain ΔlacZ, WT gyrA): 0.035 µg/mL
MIC ([10]; MG1655, read-out: ciprofloxacin MIC, strain ΔlacZ, gyrA S83L): 0.45 µg/mL
MIC ([10]; MG1655, read-out: ciprofloxacin MIC, strain ΔlacZ, gyrA S83Δ): 0.25 µg/mL
MIC ([10]; MG1655, read-out: ciprofloxacin MIC, strain ΔpolB, WT gyrA): 0.03 µg/mL
MIC ([10]; MG1655, read-out: ciprofloxacin MIC, strain ΔpolB, gyrA S83L): 0.45 µg/mL
MIC ([10]; MG1655, read-out: ciprofloxacin MIC, strain ΔpolB, gyrA S83Δ): 0.25 µg/mL
MIC ([10]; MG1655, read-out: ciprofloxacin MIC, strain ΔpolB, ΔdinB, WT gyrA): 0.025 µg/mL
MIC ([10]; MG1655, read-out: ciprofloxacin MIC, strain ΔpolB, ΔdinB, gyrA S83L): 0.45 µg/mL
MIC ([10]; MG1655, read-out: ciprofloxacin MIC, strain ΔpolB, ΔdinB, gyrA S83Δ): 0.25 µg/mL
MIC ([10]; MG1655, read-out: ciprofloxacin MIC, strain ΔpolB, ΔdinB, ΔumuDC, WT gyrA): 0.025 µg/mL
MIC ([10]; MG1655, read-out: ciprofloxacin MIC, strain ΔpolB, ΔdinB, ΔumuDC, gyrA S83L): 0.45 µg/mL
MIC ([10]; MG1655, read-out: ciprofloxacin MIC, strain ΔpolB, ΔdinB, ΔumuDC, gyrA S83Δ): 0.25 µg/mL
MIC ([10]; MG1655, read-out: ciprofloxacin MIC, strain ΔpolB, ΔumuDC, WT gyrA): 0.025 µg/mL
MIC ([10]; MG1655, read-out: ciprofloxacin MIC, strain ΔpolB, ΔumuDC, gyrA S83L): 0.45 µg/mL
MIC ([10]; MG1655, read-out: ciprofloxacin MIC, strain ΔpolB, ΔumuDC, gyrA S83Δ): 0.25 µg/mL
MIC ([10]; MG1655, read-out: ciprofloxacin MIC, strain ΔrecD, WT gyrA): 0.035 µg/mL
MIC ([10]; MG1655, read-out: ciprofloxacin MIC, strain ΔrecD, gyrA S83L): 0.35 µg/mL
MIC ([10]; MG1655, read-out: ciprofloxacin MIC, strain ΔrecD, gyrA S83Δ): 0.25 µg/mL
MIC ([10]; MG1655, read-out: ciprofloxacin MIC, strain ΔumuDC, WT gyrA): 0.035 µg/mL
MIC ([10]; MG1655, read-out: ciprofloxacin MIC, strain ΔumuDC, gyrA S83L): 0.45 µg/mL
MIC ([10]; MG1655, read-out: ciprofloxacin MIC, strain ΔumuDC, gyrA S83Δ): 0.25 µg/mL

VAAGEPL [peptide 3]
inhibition of LexA's autocleavage (LexA): inhibition
